Values of other authors as cited in the PKSmart pharmacokinetics tables (Seal et al. 2025).

Assay: Lombardo, Berellini, Obach 2018, Drug Metab Dispos 46:1466, doi 10.1124/dmd.118.082966
Conditions: human; for MRT / Vd / clearance / half-life: in vivo, iv; for fraction unbound: plasma

Question: For `CC(C)(C)c1cnc(CSc2cnc(NC(=O)C3CCNCC3)s2)o1`, which MRT is on record?
Answer: 7.13 h

Question: What about the Vd of the same compound?
Answer: 5.14 L/kg

Question: And the clearance?
Answer: 13 mL/min/kg

Question: And the half-life?
Answer: 9.3 h

Question: For `CC[C@@]1(O)C(=O)OCc2c1cc1n(c2=O)Cc2c-1nc1ccccc1c2CC[Si](C)(C)C`, which MRT is on record?
Answer: 13.3 h

Question: What about the Vd of the same compound?
Answer: 3.26 L/kg

Question: What about the clearance of the same compound?
Answer: 4.2 mL/min/kg

Question: What about the half-life of the same compound?
Answer: 13.2 h

Question: For `O=C(O[C@H]1C[N+]2(CCCOc3ccccc3)CCC1CC2)C(O)(c1cccs1)c1cccs1`, which MRT is on record?
Answer: 1.76 h

Question: What about the Vd of the same compound?
Answer: 4.3 L/kg

Question: And the clearance?
Answer: 48.5 mL/min/kg

Question: Which MRT does the source give for `N#Cc1c(N2C[C@@H]3NCCO[C@H]3C2)c(F)cc2c(=O)c(C(=O)O)cn(C3CC3)c12` here?
Answer: 4.11 h

Question: What about the Vd of the same compound?
Answer: 1.42 L/kg

Question: And the clearance?
Answer: 5.75 mL/min/kg

Question: And the half-life?
Answer: 13.4 h

Question: And the fraction unbound?
Answer: 0.75

Question: For `CCC1C(=O)N(C)c2cnc(Nc3ccc(C(=O)NC4CCN(C)CC4)cc3OC)nc2N1C1CCCC1` (stereo not given), which MRT is on record?
Answer: 31.3 h

Question: And the Vd?
Answer: 31.2 L/kg

Question: What about the clearance of the same compound?
Answer: 17.1 mL/min/kg

Question: And the half-life?
Answer: 40.1 h

Question: For `C[C@]12CCC(=O)C=C1CC[C@@H]1[C@@H]2[C@@H](O)C[C@@]2(C)[C@H]1CC[C@]2(O)C(=O)CO`, which MRT is on record?
Answer: 1.9 h

Question: And the Vd?
Answer: 0.38 L/kg

Question: And the clearance?
Answer: 5.7 mL/min/kg

Question: And the half-life?
Answer: 1.6 h

Question: What does the source list for `COc1ccc(CC2c3cc(OC)c(OC)cc3CC[N+]2(C)CCC(=O)OCCCCCOC(=O)CC[N+]2(C)CCc3cc(OC)c(OC)cc3C2Cc2ccc(OC)c(OC)c2)cc1OC` (stereo not given)?
Answer: MRT: 0.29 h; Vd: 0.1 L/kg; clearance: 5.7 mL/min/kg; half-life: 0.31 h; fraction unbound: 0.52

Question: What does the source list for `OCCO[C@H]1C[C@@H](n2nnc3c(N[C@@H]4C[C@H]4c4ccc(F)c(F)c4)nc(S)nc32)[C@H](O)[C@@H]1O`?
Answer: MRT: 6.16 h; Vd: 1.25 L/kg; clearance: 3.38 mL/min/kg; half-life: 6.8 h; fraction unbound: 0.002

Question: With `O=c1[nH]c(O)cn1/N=C/c1ccc(-c2ccc([N+](=O)[O-])cc2)o1` as the compound, how does the MRT read?
Answer: 14 h

Question: What about the Vd of the same compound?
Answer: 0.37 L/kg

Question: What about the clearance of the same compound?
Answer: 0.43 mL/min/kg

Question: And the half-life?
Answer: 10 h

Question: With `CN(C)CCO[C@]1(c2ccccc2)C[C@H]2CC[C@]1(C)C2(C)C` as the compound, how does the MRT read?
Answer: 26.6 h

Question: What about the Vd of the same compound?
Answer: 7.7 L/kg

Question: And the clearance?
Answer: 4.88 mL/min/kg

Question: And the half-life?
Answer: 26.6 h

Question: And the fraction unbound?
Answer: 0.05

Question: What does the source list for `Cn1cc(NC(=O)Nc2cc(C(=O)Nc3cc(C(=O)Nc4ccc5cc(S(=O)(=O)O)cc(S(=O)(=O)O)c5c4)n(C)c3)n(C)c2)cc1C(=O)Nc1cc(C(=O)Nc2ccc3cc(S(=O)(=O)O)cc(S(=O)(=O)O)c3c2)n(C)c1`?
Answer: MRT: 960 h; Vd: 0.27 L/kg; clearance: 0.0047 mL/min/kg; half-life: 730 h

Question: For `CC1C(=O)O[C@H]2[C@H](O)C34[C@H]5C[C@@H](C(C)(C)C)C36C(O)C(=O)O[C@H]6OC4(C(=O)O5)[C@@]12O` (stereo not given in full), which MRT is on record?
Answer: 6.6 h

Question: And the Vd?
Answer: 0.91 L/kg

Question: And the clearance?
Answer: 2.3 mL/min/kg

Question: What about the half-life of the same compound?
Answer: 5.2 h

Question: What about the fraction unbound of the same compound?
Answer: 0.8

Question: With `CS(=O)(=O)c1ccc(C2=C(c3ccccc3)C(=O)OC2)cc1` as the compound, how does the MRT read?
Answer: 10.8 h

Question: What about the Vd of the same compound?
Answer: 1.3 L/kg

Question: What about the clearance of the same compound?
Answer: 2 mL/min/kg

Question: And the half-life?
Answer: 7.5 h

Question: What about the fraction unbound of the same compound?
Answer: 0.13

Question: Which MRT does the source give for `CCNCC(O)c1cccc(O)c1` (stereo not given) here?
Answer: 2.5 h

Question: What about the Vd of the same compound?
Answer: 2.1 L/kg

Question: What about the clearance of the same compound?
Answer: 14 mL/min/kg

Question: What about the half-life of the same compound?
Answer: 2.2 h

Question: For `CC[C@]1(O)C[C@@H]2CN(CCc3c([nH]c4ccccc34)[C@@](C(=O)OC)(c3cc4c(cc3OC)N(C)[C@H]3[C@@](O)(C(=O)OC)[C@H](OC(C)=O)[C@]5(CC)C=CCN6CC[C@]43[C@@H]65)C2)C1`, which MRT is on record?
Answer: 150 h

Question: What about the Vd of the same compound?
Answer: 28 L/kg

Question: And the half-life?
Answer: 67 h

Question: Which clearance does the source give for `Cc1[nH]c2ccccc2c1CCNCc1ccc(/C=C/C(O)=NO)cc1` here?
Answer: 10.2 mL/min/kg

Question: And the half-life?
Answer: 13.1 h

Question: And the fraction unbound?
Answer: 0.1

Question: What does the source list for `CN(C)CCC(c1ccc(Cl)cc1)c1ccccn1` (stereo not given)?
Answer: MRT: 22 h; Vd: 3.3 L/kg; clearance: 2.5 mL/min/kg

Question: Which results are given for `Cc1nnc(SCC2=C(C(=O)O)N3C(=O)C(NC(=O)Cn4cc(Cl)c(=O)c(Cl)c4)[C@H]3SC2)s1` (stereo not given in full)?
Answer: MRT: 2.3 h; Vd: 0.13 L/kg; clearance: 0.95 mL/min/kg; half-life: 1.91 h

Question: For `CCc1ccc(Cc2ccc3c(c2)[C@]2(OC3)O[C@H](CO)[C@@H](O)[C@H](O)[C@H]2O)cc1`, which MRT is on record?
Answer: 5.1 h

Question: And the Vd?
Answer: 0.63 L/kg

Question: And the clearance?
Answer: 2.07 mL/min/kg

Question: And the half-life?
Answer: 4.7 h

Question: What about the fraction unbound of the same compound?
Answer: 0.46

Question: Which MRT does the source give for `COc1cc(NC(C)CCCN)c2ncccc2c1` (stereo not given) here?
Answer: 11 h

Question: And the Vd?
Answer: 4 L/kg

Question: What about the clearance of the same compound?
Answer: 5.8 mL/min/kg

Question: What about the half-life of the same compound?
Answer: 7.1 h

Question: For `O=S(=O)(O)CCS`, which MRT is on record?
Answer: 0.52 h

Question: And the Vd?
Answer: 0.65 L/kg

Question: And the clearance?
Answer: 20.5 mL/min/kg

Question: And the half-life?
Answer: 0.36 h

Question: For `O=C(Cn1cnnn1)NC1C(=O)N2C(C(=O)O)=C(CSc3nncs3)CS[C@H]12` (stereo not given in full), which clearance is on record?
Answer: 5.37 mL/min/kg

Question: What about the half-life of the same compound?
Answer: 0.64 h

Question: With `CC[N+]1(CC)CCC(=C(c2ccccc2)c2ccccc2)[C@@H]1C` as the compound, how does the MRT read?
Answer: 2.5 h

Question: What about the Vd of the same compound?
Answer: 1.87 L/kg

Question: What about the clearance of the same compound?
Answer: 12.5 mL/min/kg

Question: And the half-life?
Answer: 2.13 h

Question: Which MRT does the source give for `OCCN1C[C@H](O)[C@@H](O)[C@H](O)[C@H]1CO` here?
Answer: 2.7 h

Question: And the Vd?
Answer: 0.28 L/kg

Question: And the clearance?
Answer: 1.7 mL/min/kg

Question: And the half-life?
Answer: 2.3 h

Question: Which results are given for `C#C[C@]1(O)CC[C@H]2[C@@H]3CC=C4CC(=O)CCC4[C@H]3C(=C)C[C@@]21CC` (stereo not given in full)?
Answer: MRT: 23.6 h; Vd: 2.87 L/kg; clearance: 2 mL/min/kg; half-life: 25 h; fraction unbound: 0.02

Question: With `CON=C(C(=O)NC1C(=O)N2C(C(=O)O)=C(CSc3nc(=O)c(O)nn3C)CS[C@H]12)c1csc(N)n1` (stereo not given in full) as the compound, how does the MRT read?
Answer: 9.6 h

Question: And the Vd?
Answer: 0.12 L/kg

Question: And the clearance?
Answer: 0.22 mL/min/kg

Question: And the half-life?
Answer: 7.6 h

Question: And the fraction unbound?
Answer: 0.1

Question: For `NC[C@H]1O[C@H](O[C@H]2[C@H](O[C@@H]3O[C@H](CO)[C@@H](O)[C@H]3O)[C@@H](O)[C@H](N)C[C@@H]2N)[C@H](N)[C@@H](O)[C@@H]1O`, which MRT is on record?
Answer: 2.8 h

Question: What about the Vd of the same compound?
Answer: 0.25 L/kg

Question: What about the clearance of the same compound?
Answer: 1.5 mL/min/kg

Question: What about the half-life of the same compound?
Answer: 2.5 h

Question: For `NCCCCCC(=O)O`, which MRT is on record?
Answer: 2.6 h

Question: What about the Vd of the same compound?
Answer: 0.39 L/kg

Question: What about the clearance of the same compound?
Answer: 2.5 mL/min/kg

Question: And the half-life?
Answer: 4.9 h

Question: What about the fraction unbound of the same compound?
Answer: 0.92

Question: Which MRT does the source give for `CS(=O)(=O)OC[C@H](O)[C@@H](O)COS(C)(=O)=O` here?
Answer: 2 h

Question: What about the Vd of the same compound?
Answer: 0.59 L/kg

Question: And the clearance?
Answer: 4.9 mL/min/kg

Question: And the half-life?
Answer: 1.83 h

Question: What does the source list for `CCC(C(N)=O)N1CCCC1=O` (stereo not given)?
Answer: MRT: 11.2 h; Vd: 0.6 L/kg; clearance: 0.9 mL/min/kg; half-life: 8.23 h; fraction unbound: 0.9

Question: Which results are given for `C#Cc1cccc(Nc2ncnc3cc(OC)c(OCCCCCCC(O)=NO)cc23)c1`?
Answer: MRT: 0.78 h; Vd: 0.56 L/kg; clearance: 12 mL/min/kg; half-life: 5.01 h

Question: For `CCCCCCN1CCC(C(=O)N(C)CC)(c2ccccc2)CC1`, which clearance is on record?
Answer: 24 mL/min/kg

Question: And the half-life?
Answer: 3.6 h

Question: With `c1ccc(C2(c3ccccc3)CC2C2=NCCN2)cc1` (stereo not given) as the compound, how does the MRT read?
Answer: 7.8 h

Question: What about the Vd of the same compound?
Answer: 4.1 L/kg

Question: What about the clearance of the same compound?
Answer: 8.6 mL/min/kg

Question: What about the half-life of the same compound?
Answer: 7.3 h
